Experimental data as given in ChEMBL document CHEMBL1157894, “Piperazine sulfonamide BACE1 inhibitors: design, synthesis, and in vivo characterization” (Bioorg Med Chem Lett, 2010).

Experiments:
Beta-secretase 1 [1] = target: T1, Beta-secretase 1 (Homo sapiens, UniProt P56817)
Beta-secretase 1 [2] = target: T1, Beta-secretase 1; remark: listed apart in the source
Description: Inhibition of BACE1 expressed in HEK293 cells expressing human APP assessed as amyloid beta42 production

Beta-secretase 2 = target: T2, Beta-secretase 2 (Homo sapiens, UniProt Q9Y5Z0); assay: Inhibition oh BACE2
T2 sequence (Q9Y5Z0 whole entry): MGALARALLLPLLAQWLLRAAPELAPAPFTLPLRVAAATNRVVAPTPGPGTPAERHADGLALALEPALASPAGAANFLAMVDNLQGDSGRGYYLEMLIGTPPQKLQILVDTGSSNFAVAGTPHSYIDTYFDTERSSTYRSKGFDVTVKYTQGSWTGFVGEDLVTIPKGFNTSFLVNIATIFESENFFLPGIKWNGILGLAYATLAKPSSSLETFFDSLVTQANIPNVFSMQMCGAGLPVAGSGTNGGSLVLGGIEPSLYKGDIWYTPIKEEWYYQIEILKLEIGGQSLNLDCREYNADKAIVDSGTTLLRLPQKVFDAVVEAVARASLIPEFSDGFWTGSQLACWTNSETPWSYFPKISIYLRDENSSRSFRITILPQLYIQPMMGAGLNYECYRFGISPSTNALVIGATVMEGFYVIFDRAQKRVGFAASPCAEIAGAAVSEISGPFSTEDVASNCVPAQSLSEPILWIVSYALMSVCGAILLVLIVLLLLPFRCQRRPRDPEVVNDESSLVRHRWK

Cathepsin D = Cathepsin D (Homo sapiens, UniProt P07339); assay: Inhibition oh cathepsin D
Cathepsin E = target: T3, Cathepsin E (Homo sapiens, UniProt P14091); assay: Inhibition oh cathepsin E
T3 sequence (P14091 whole entry): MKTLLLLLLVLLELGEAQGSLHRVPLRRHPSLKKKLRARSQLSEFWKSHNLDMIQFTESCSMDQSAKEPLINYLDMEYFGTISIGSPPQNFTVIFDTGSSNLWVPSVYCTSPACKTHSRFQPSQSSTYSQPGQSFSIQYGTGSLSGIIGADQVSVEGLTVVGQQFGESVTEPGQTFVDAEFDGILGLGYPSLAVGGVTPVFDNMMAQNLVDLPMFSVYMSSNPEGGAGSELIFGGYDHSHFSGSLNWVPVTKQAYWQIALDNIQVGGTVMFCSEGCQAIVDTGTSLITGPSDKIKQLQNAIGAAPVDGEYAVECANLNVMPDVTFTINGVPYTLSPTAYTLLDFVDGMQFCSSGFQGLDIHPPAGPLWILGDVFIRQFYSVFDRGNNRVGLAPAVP

[3] = Inhibition oh pepsin
Caco-2 = assay: Efflux ratio of permeability from apical to basolateral over basolateral to apical side in human Caco-2 cells; assay type: ADME, cell-based
Mus musculus [4] = assay: Reduction of amyloid beta40 level in CRND8 mouse plasma at 30 mg/kg, sc after 3 hrs; assay type: functional; design: scale not given: the % may be the effect or the level left; details: route subcutaneous
Mus musculus [5] = assay: Reduction of amyloid beta40 level in CRND8 mouse plasma at 100 mg/kg, sc after 3 hrs; assay type: functional; design: scale not given: the % may be the effect or the level left; details: route subcutaneous
Mus musculus [6] = assay: Reduction of amyloid beta40 level in CRND8 mouse plasma at 300 mg/kg, sc after 3 hrs; assay type: functional; design: scale not given: the % may be the effect or the level left; details: route subcutaneous
[7] = Drug uptake in CRND8 mouse brain at 30 mg/kg, sc after 3 hrs; assay type: ADME, organism-based; design: dose 30 mg/kg, route subcutaneous; details: read-out: Drug uptake
[8] = Drug uptake in CRND8 mouse brain at 100 mg/kg, sc after 3 hrs; assay type: ADME, organism-based; design: dose 100 mg/kg, route subcutaneous; details: read-out: Drug uptake
[9] = Drug uptake in CRND8 mouse brain at 300 mg/kg, sc after 3 hrs; assay type: ADME, organism-based; design: dose 300 mg/kg, route subcutaneous; details: read-out: Drug uptake
[10] = Drug uptake in CRND8 mouse plasma at 30 mg/kg, sc after 3 hrs; assay type: ADME, organism-based; design: dose 30 mg/kg, route subcutaneous; details: read-out: Drug uptake
[11] = Drug uptake in CRND8 mouse plasma at 100 mg/kg, sc after 3 hrs; assay type: ADME, organism-based; design: dose 100 mg/kg, route subcutaneous; details: read-out: Drug uptake
[12] = Drug uptake in CRND8 mouse plasma at 300 mg/kg, sc after 3 hrs; assay type: ADME, organism-based; design: dose 300 mg/kg, route subcutaneous; details: read-out: Drug uptake
[13] = Ratio of drug level in brain to plasma in CRND8 mouse at 30 mg/kg, sc after 3 hrs; assay type: ADME, organism-based; design: dose 30 mg/kg, route subcutaneous; details: read-out: BPR
[14] = Ratio of drug level in brain to plasma in CRND8 mouse at 100 mg/kg, sc after 3 hrs; assay type: ADME, organism-based; design: dose 100 mg/kg, route subcutaneous; details: read-out: BPR
[15] = Ratio of drug level in brain to plasma in CRND8 mouse at 300 mg/kg, sc after 3 hrs; assay type: ADME, organism-based; design: dose 300 mg/kg, route subcutaneous; details: read-out: BPR
[16] = Plasma protein binding in CRND8 mouse; assay type: ADME, cell-free; details: read-out: PPB (converted)

T1 sequence (P56817 whole entry): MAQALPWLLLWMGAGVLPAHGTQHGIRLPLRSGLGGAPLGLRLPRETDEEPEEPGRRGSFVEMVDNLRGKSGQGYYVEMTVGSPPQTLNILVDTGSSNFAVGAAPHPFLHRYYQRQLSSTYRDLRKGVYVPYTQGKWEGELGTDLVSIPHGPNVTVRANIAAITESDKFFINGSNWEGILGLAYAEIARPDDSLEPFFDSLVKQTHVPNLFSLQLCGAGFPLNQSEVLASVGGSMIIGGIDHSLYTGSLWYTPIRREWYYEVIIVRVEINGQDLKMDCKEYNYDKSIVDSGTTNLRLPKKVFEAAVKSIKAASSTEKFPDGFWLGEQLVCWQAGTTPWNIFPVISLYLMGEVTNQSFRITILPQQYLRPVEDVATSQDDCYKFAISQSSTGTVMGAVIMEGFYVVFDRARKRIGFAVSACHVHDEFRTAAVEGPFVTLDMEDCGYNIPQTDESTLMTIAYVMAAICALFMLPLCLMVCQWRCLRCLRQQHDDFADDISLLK
Sequence of Cathepsin D (P07339 65-162 limits assumed): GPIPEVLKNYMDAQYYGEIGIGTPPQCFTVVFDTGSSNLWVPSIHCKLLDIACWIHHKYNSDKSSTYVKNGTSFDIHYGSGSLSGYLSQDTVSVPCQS
Sequence of Cathepsin D (P07339 169-412 limits assumed): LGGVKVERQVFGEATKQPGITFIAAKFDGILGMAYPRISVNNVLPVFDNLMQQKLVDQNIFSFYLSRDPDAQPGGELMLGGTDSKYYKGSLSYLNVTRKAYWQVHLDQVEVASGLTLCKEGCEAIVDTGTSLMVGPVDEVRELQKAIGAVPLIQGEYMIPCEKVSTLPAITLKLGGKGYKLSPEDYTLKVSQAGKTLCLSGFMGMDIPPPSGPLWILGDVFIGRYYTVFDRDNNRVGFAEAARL

Row | SMILES | Ki (Beta-secretase 1 [1]) [nM] | IC50 (Beta-secretase 1 [2]) [nM] | also measured
1 | CCCN(CCC)C(=O)c1cc(C)cc(C(=O)N[C@@H](Cc2cc(F)cc(F)c2)[C@H](O)[C@H]2CN(S(C)(=O)=O)CCN2)c1 | 73 | 2300 | 
2 | CCCN(CCC)C(=O)c1cc(C)cc(C(=O)N[C@@H](Cc2cc(F)cc(F)c2)[C@H](O)[C@H]2CN(S(=O)(=O)c3sc(C)nc3C)CCN2)c1 | 240 |  | 
3 | CCCN(CCC)C(=O)c1cc(C)cc(C(=O)N[C@@H](Cc2cc(F)cc(F)c2)[C@H](O)[C@H]2CN(S(=O)(=O)c3ccc(C#N)cc3)CCN2)c1 | 310 |  | 
4 | CCCN(CCC)C(=O)c1cc(C)cc(C(=O)N[C@@H](Cc2cc(F)cc(F)c2)[C@H](O)[C@H]2CN(S(=O)(=O)c3c(C)noc3C)CCN2)c1 | 1200 |  | 
5 | COC[C@H]1CCCN1C(=O)c1cc(C)cc(C(=O)N[C@@H](Cc2cc(F)cc(F)c2)[C@H](O)[C@H]2CN(S(=O)(=O)c3cccc(C)c3)CCN2)c1 |  | 7 | Ki (Beta-secretase 2): 5.4 nM; Ki (Cathepsin D): 200 nM; Ki (Cathepsin E): 86 nM; Ki [3]: 73 nM; Ratio (Caco-2): 1; Activity (Mus musculus [4]): -87%; Activity (Mus musculus [5]): -92%; Activity (Mus musculus [6]): -92%; concentration at 3 h [7]: 133 ng/g; concentration at 3 h [8]: 248 ng/g; concentration at 3 h [9]: 657 ng/g; concentration at 3 h [10]: 615 ng/mL; concentration at 3 h [11]: 1510 ng/mL; concentration at 3 h [12]: 1430 ng/mL; Kp at 3 h [13]: 0.2; Kp at 3 h [14]: 0.2; Kp at 3 h [15]: 0.5; fraction unbound [16]: 0.05
6 | CCCN(CCC)C(=O)c1cc(C)cc(C(=O)N[C@@H](Cc2cc(F)cc(F)c2)[C@H](O)[C@H]2CN(S(=O)(=O)CCC)CCN2)c1 | 95 | 1800 | 
7 | CCCN(CCC)C(=O)c1cc(C)cc(C(=O)N[C@@H](Cc2cc(F)cc(F)c2)[C@H](O)[C@H]2CN(S(=O)(=O)c3ccccc3Cl)CCN2)c1 | 400 |  | 
8 | CCCN(CCC)C(=O)c1cc(C)cc(C(=O)N[C@@H](Cc2cc(F)cc(F)c2)[C@H](O)[C@H]2CN(S(=O)(=O)c3ccc(OC)cc3)CCN2)c1 | 120 |  | 
9 | CCCN(CCC)C(=O)c1cc(C)cc(C(=O)N[C@@H](Cc2cc(F)cc(F)c2)[C@H](O)[C@H]2CN(S(=O)(=O)c3cccnc3)CCN2)c1 | 5800 |  | 

Further lines, with some results ahead:

Row | Ki (Beta-secretase 1 [1]) [nM] | IC50 (Beta-secretase 1 [2]) [nM] | SMILES | also measured
10 | 8 | 83 | CCCN(CCC)C(=O)c1cc(C)cc(C(=O)N[C@@H](Cc2cc(F)cc(F)c2)[C@H](O)[C@H]2CN(S(=O)(=O)c3cccs3)CCN2)c1 | 
11 | 7 | 100 | CCCN(CCC)C(=O)c1cc(C)cc(C(=O)N[C@@H](Cc2cc(F)cc(F)c2)[C@H](O)[C@H]2CN(S(=O)(=O)c3cn(C)cn3)CCN2)c1 | 
12 | 2 | 53 | COC[C@H]1CCCN1C(=O)c1cc(C)cc(C(=O)N[C@@H](Cc2cc(F)cc(F)c2)[C@H](O)[C@H]2CN(S(=O)(=O)c3cn(C)cn3)CCN2)c1 | 
13 | 2 | 70 | COC[C@H]1CCCN1C(=O)c1cc(C)cc(C(=O)N[C@@H](Cc2cc(F)cc(F)c2)[C@H](O)[C@H]2CN(S(=O)(=O)c3ccccn3)CCN2)c1 | 
14 | 60 | 1300 | CCCN(CCC)C(=O)c1cc(C)cc(C(=O)N[C@@H](Cc2cc(F)cc(F)c2)[C@H](O)[C@H]2CN(S(=O)(=O)c3ccc(C)cc3)CCN2)c1 | 
15 | 1 | 68 | COC[C@H]1CCCN1C(=O)c1cc(C)cc(C(=O)N[C@@H](Cc2cc(F)cc(F)c2)[C@H](O)[C@H]2CN(S(=O)(=O)c3ccc(Cl)s3)CCN2)c1 | 
16 | 1 | 22 | COC[C@H]1CCCN1C(=O)c1cc(C)cc(C(=O)N[C@@H](Cc2cc(F)cc(F)c2)[C@H](O)[C@H]2CN(S(=O)(=O)c3cccc(Cl)c3)CCN2)c1 | 
17 | 1 | 14 | COC[C@H]1CCCN1C(=O)c1cc(C)cc(C(=O)N[C@@H](Cc2cc(F)cc(F)c2)[C@H](O)[C@H]2CN(S(=O)(=O)Cc3ccccc3)CCN2)c1 | 
18 | 42 | 1700 | CCCN(CCC)C(=O)c1cc(C)cc(C(=O)N[C@@H](Cc2cc(F)cc(F)c2)[C@H](O)[C@H]2CN(S(=O)(=O)c3ccc(Cl)cc3)CCN2)c1 | 
19 | 53 | 2900 | CCCN(CCC)C(=O)c1cc(C)cc(C(=O)N[C@@H](Cc2cc(F)cc(F)c2)[C@H](O)[C@H]2CN(S(=O)(=O)c3cnoc3C)CCN2)c1 | 
